According to PMC9019904, “AD Informer Set: Chemical tools to facilitate Alzheimer's disease drug discovery” (Alzheimer's & Dementia : Translational Research & Clinical …, 2022):
Values after ≈ are worked out from the molar mass of the structure shown.

Assays:
[1] = Kinetic solubility in aqueous buffer pH 7.4 by total chemiluminescent nitrogen determination (Analiza); details: aqueous buffer, pH 7.4, aqueous buffer, kinetic from dmso stock
[2] = system: BV2 (mouse microglia) cell line; test: pHrodo-myelin phagocytosis/cell viability high content imaging assay: phagocytosis signal; format: cell-based
Outline: (§1)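 Simultaneous phagocytosis/viability imaging at approximately 22 h after adding pHrodo-myelin. Rising intensity flagged early apoptosis and falling intensity later apoptosis.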

[3] = system: HMC3 (human microglia) cell line; test: as above; format: cell-based
Outline: as §1

[4] = system: BV2 (mouse microglia) cell line; test: pHrodo-myelin phagocytosis/cell viability high content imaging assay: viability (cell count, nuclear area, nuclear intensity); details: 48 hours treatment
Outline: (§2)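 BV2 mouse and HMC3 human microglia were treated with compounds at 10 μM for 48 h, with pHrodo-myelin present for the last 20 h. Viability was imaged as total cell count per well and mean nuclear intensity per cell. Values are means of duplicates, normalized to untreated wells as % control.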

[5] = system: HMC3 (human microglia) cell line; test: as above; details: 48 hours treatment
Outline: as §2

[6] = BV2 cells, 10 uM compound, 48 hours treatment, pHrodo-myelin final 20 hours
[7] = HMC3 cells, 10 uM compound, 48 hours treatment, pHrodo-myelin final 20 hours
[8] = BV2, compound 10 uM, pHrodo-myelin
[9] = HMC3, compound 10 uM, pHrodo-myelin

Row | solubility kinetic [1] | SMILES | 4. Phagocytosis (% control) [2, 6] | 4. Phagocytosis (% control) [3, 7] | 2. Nuclear Area (% Control) ([4]; BV2 cells, 10 uM compound) | 3. Nuclear DNA Intensity (% control) ([4]; BV2 cells, 10 uM compound) | 1. Cell count (% control) ([5]; HMC3 cells, 10 uM compound) | 2. Nuclear Area (% Control) ([5]; HMC3 cells, 10 uM compound) | 3. Nuclear DNA Intensity (% control) ([5]; HMC3 cells, 10 uM compound) | 4. Phagocytosis (% control) [2, 8] | 4. Phagocytosis (% control) [3, 9] | 1. Cell count (% control) ([4]; BV2, compound 10 uM) | 2. Nuclear Area (% Control) ([4]; BV2, compound 10 uM) | 3. Nuclear DNA Intensity (% control) ([4]; BV2, compound 10 uM) | 1. Cell count (% control) ([5]; HMC3, compound 10 uM) | 2. Nuclear Area (% Control) ([5]; HMC3, compound 10 uM) | 3. Nuclear DNA Intensity (% control) ([5]; HMC3, compound 10 uM) | 1. Cell count (% control) ([4]; BV2 cells, 10 uM compound)
1 | 4.1 µM | Cl.O=C(O)Cc1cccc(OCCCN(Cc2cccc(C(F)(F)F)c2Cl)CC(c2ccccc2)c2ccccc2)c1 [GW 3965 HCl] |  |  |  |  |  |  |  |  |  |  |  |  |  |  |  | 
2 | 215 µM (≈ 60.6 µg/mL) | CC(C)c1ccc(/C=N/NC(=O)c2ccc(O)cc2)cc1 [GSK 4716] |  |  |  |  |  |  |  |  |  |  |  |  |  |  |  | 
3 | 0.9 µM (≈ 0.732 µg/mL) | CN(C)CC[C@H](CSc1ccccc1)Nc1ccc(S(=O)(=O)NC(=O)c2ccc(N3CCN(Cc4ccccc4-c4ccc(Cl)cc4)CC3)cc2)cc1[N+](=O)[O-] [ABT-737] |  |  |  |  |  |  |  |  |  |  |  |  |  |  |  | 
4 | 0.7 µM (≈ 0.366 µg/mL) | CCOC(=O)N1CCC(Nc2c(NCCN3CCN(c4cccc(C(F)(F)F)c4)CC3)c(=O)c2=O)CC1 [Squarunkin A] |  |  |  |  |  |  |  |  |  |  |  |  |  |  |  | 
5 | 191 µM (≈ 55.9 µg/mL) | Cc1cc(NC(=O)Nc2ccccc2)n(-c2ccccc2)n1 [CHEMBL86962 (VU0032230)] |  |  |  |  |  |  |  |  |  |  |  |  |  |  |  | 
6 |  | CN(C)C/C=C/C(=O)Nc1cc2c(Nc3ccc(F)c(Cl)c3)ncnc2cc1O[C@H]1CCOC1 [UNC10302894A] | 41.4 % control | 43.8 % control | 107.0 % Control | 89.4 % control | 95.3 % control | 52.1 % Control | 246.1 % control |  |  |  |  |  |  |  |  | 
7 |  | Cn1nccc1Nc1nccc(-c2ccn([C@H](CO)c3ccc(Cl)c(F)c3)c(=O)c2)n1 [UNC8131A] |  |  |  |  |  |  |  | 0.00107 % control | 12.1 % control | 15.3 % control | 134.5 % Control | 44.7 % control | 54.4 % control | 77.5 % Control | 167.5 % control | 
8 |  | CCN(CC)c1ccc(/C=N/NC(=O)c2ccc(O)cc2)cc1 [UNC10302868A] | 142.8 % control | 65.0 % control | 105.9 % Control | 100.1 % control | 102.3 % control | 101.3 % Control | 100.0 % control |  |  |  |  |  |  |  |  | 64.8 % control
9 |  | CSc1ccc2c(c1)c(CCN)c(C)n2Cc1ccc(Cl)cc1Cl.Cl [UNC10302700A] |  |  |  |  |  |  |  | 0.00395 % control | 0.0 % control | 22.6 % control | 113.6 % Control | 33.9 % control | 10.1 % control | 49.3 % Control | 146.5 % control | 
10 |  | CNc1nc(C)nc(N[C@H]2CCC[C@@H](C(=O)NCc3ccc(C#N)cc3C(F)(F)F)C2)n1 [UNC10302679A] | 135.7 % control | 69.3 % control | 106.3 % Control | 102.1 % control | 141.0 % control | 100.7 % Control | 92.7 % control |  |  |  |  |  |  |  |  | 107.8 % control
11 |  | N#CC(CCCN1CCN(/N=C/c2cccnc2)CC1)(c1ccccc1)c1ccccc1 [UNC10302973A] | 132.9 % control | 84.2 % control | 106.0 % Control | 96.8 % control | 118.4 % control | 102.3 % Control | 89.1 % control |  |  |  |  |  |  |  |  | 73.0 % control
12 |  | COc1cc(C(=O)NS(=O)(=O)c2ccccc2C)ccc1Cc1cn(C)c2ccc(NC(=O)OC3CCCC3)cc12 [UNC10121228A] | 129.0 % control | 87.2 % control | 103.2 % Control | 103.9 % control | 110.1 % control | 100.7 % Control | 103.6 % control |  |  |  |  |  |  |  |  | 90.6 % control
13 |  | CC(=O)O[C@@H]1[C@@H](OC(C)=O)[C@@H](O)[C@H](Oc2c(-c3ccc(O)cc3)oc3cc(O)cc(O)c3c2=O)O[C@H]1C [UNC10303187A] |  |  |  |  |  |  |  | 142.1 % control | 67.9 % control | 146.1 % control | 103.4 % Control | 101.7 % control | 122.3 % control | 105.1 % Control | 90.5 % control | 
14 |  | CC(C)(C(=O)O)c1ccc(C(O)CCCN2CCC(C(O)(c3ccccc3)c3ccccc3)CC2)cc1.Cl (stereo not shown) [UNC10100548A] | 106.0 % control | 96.5 % control | 103.6 % Control | 104.0 % control | 137.5 % control | 98.8 % Control | 98.9 % control |  |  |  |  |  |  |  |  | 104.5 % control
15 |  | COCCOCCOC(=O)N[C@@H](CC(C)C)C(=O)N[C@@H](Cc1ccccc1)C(=O)C(=O)NC1CC1 [UNC10302677A] | 132.9 % control | 70.4 % control | 105.3 % Control | 103.4 % control | 142.6 % control | 102.2 % Control | 91.6 % control |  |  |  |  |  |  |  |  | 132.7 % control
16 |  | O=c1ncn2nc(Sc3ccc(F)cc3F)ccc2c1-c1c(Cl)cccc1Cl [UNC10303093A] | 151.8 % control | 71.1 % control | 100.4 % Control | 110.5 % control | 125.9 % control | 98.4 % Control | 98.8 % control |  |  |  |  |  |  |  |  | 114.5 % control
17 |  | O=S(=O)(c1ccc2c(c1)C(=NO)c1cc(S(=O)(=O)N3CCCCC3)ccc1-2)N1CCCCC1 [UNC10302976A] | 51.8 % control | 12.0 % control | 116.9 % Control | 256.7 % control | 69.8 % control | 63.2 % Control | 194.1 % control |  |  |  |  |  |  |  |  | 11.0 % control
18 |  | CC[C@H](C)[C@H](N)C(=O)NCCN1CCOCC1.Cl.Cl [UNC10303094A] | 157.3 % control | 75.5 % control | 103.4 % Control | 103.6 % control | 133.1 % control | 103.2 % Control | 95.9 % control |  |  |  |  |  |  |  |  | 133.1 % control
19 |  | CC(=O)N1CCC(NC(=O)NC23CC4CC(CC(C4)C2)C3)CC1 [UNC10302683A] | 155.4 % control | 72.2 % control | 103.6 % Control | 107.4 % control | 168.7 % control | 103.9 % Control | 92.0 % control |  |  |  |  |  |  |  |  | 126.3 % control
20 |  | C[C@@H](Oc1cc(-c2cnn(C3CCNCC3)c2)cnc1N)c1c(Cl)ccc(F)c1Cl [UNC10220526A] | 0.00113 % control | 0.09 % control | 109.8 % Control | 15.3 % control | 41.7 % control | 75.9 % Control | 183.7 % control |  |  |  |  |  |  |  |  | 44.9 % control
21 |  | Cc1ccccc1NC(=O)CN1C(=O)N/C(=C/c2ccccc2OCc2ccc(C(=O)O)cc2)C1=O [UNC10302882A] | 153.2 % control | 89.7 % control | 109.5 % Control | 96.5 % control | 155.5 % control | 101.8 % Control | 92.5 % control |  |  |  |  |  |  |  |  | 94.9 % control
22 |  | O=C(Nc1c[nH]nc1-c1nc2cc(CN3CCOCC3)ccc2[nH]1)NC1CC1 [UNC10126643A] | 1.0 % control | 64.5 % control | 158.4 % Control | 29.9 % control | 85.8 % control | 114.0 % Control | 123.7 % control |  |  |  |  |  |  |  |  | 6.1 % control
23 |  | CC(C)CCN1c2nc(Nc3cc(F)c(O)c(F)c3)ncc2N(C)C(=O)C1C (stereo not shown) [UNC10302870A] |  |  |  |  |  |  |  | 123.8 % control | 178.1 % control | 15.1 % control | 106.7 % Control | 111.0 % control | 49.2 % control | 127.1 % Control | 123.8 % control | 
